In brackets after ≈: the same amount, converted by molar mass. Where two headings read alike, the source gives them in different places. Where only a bound is given, the exact number is not on record here.

Assay in all cases: antibacterial activity (MIC), agar plate dilution method
What all share (format): cell-based

The subject of test [1] is Staphylococcus aureus TPR 13. To be noted: for MIC: Staphylococcus aureus. The method, then: (§1) Erythromycin A was used as a control, and the compounds of formula I derived from Fractions A, B and C were tested for antibacterial activity against various bacteria by the agar plate dilution method.
The test system of test [2] is Micrococcus luteus NIHJ. To be noted: for MIC: read-out: MIC value (minimal inhibitory concentration). The method, then: as §1
Test [3] has as its system Staphylococcus aureus TPR 23. The note with it: for MIC value (minimal inhibitory concentration): Staphylococcus aureus TPR 23, strain resistant to erythromycin; for MIC: Staphylococcus aureus. As for the experimental part: as §1
Test [4] deals with Staphylococcus aureus FDA 209 P. The note with it: for MIC: Staphylococcus aureus. The method, then:
as §1

Test [5] concerns Streptococcus faecalis ATCC 8043. The note with it: for MIC: Enterococcus faecalis. The method, then: as §1
Test [6] has as its system Staphylococcus aureus TPR 25. To be noted: for MIC: Staphylococcus aureus. As for the experimental part:
as §1

The test system of test [7] is Staphylococcus epidermidis IID 866. The note with it: for MIC: Staphylococcus epidermidis. The method, then:
as §1

Test [8] relates to Bacillus subtilis EM-R. The note with it: for MIC: Bacillus subtilis, read-out: MIC value (minimal inhibitory concentration), Bacillus subtilis EM-R, strain resistant to erythromycin. As for the experimental part:
as §1

Test [9] concerns Staphylococcus aureus smith. To be noted: for MIC: Staphylococcus aureus, read-out: MIC value (minimal inhibitory concentration). The method, then:
as §1

The mark [10] stands for this setting: TPR13, Staphylococcus aureus TPR 13, strain resistant to erythromycin, agar plate dilution, read-out: MIC value (minimal inhibitory concentration).
[11] abbreviates: Micrococcus luteus NIHJ, agar plate dilution.
Where [12] appears, read: FDA209, Staphylococcus aureus FDA 209 P, agar plate dilution, read-out: MIC value (minimal inhibitory concentration).
Where [13] appears, read: ATCC8043, Streptococcus faecalis ATCC 8043, agar plate dilution, read-out: MIC value (minimal inhibitory concentration).
Where [14] appears, read: TPR25, Staphylococcus aureus TPR 25, strain resistant to erythromycin, agar plate dilution, read-out: MIC value (minimal inhibitory concentration).
[15] abbreviates: IID866, Staphylococcus epidermidis IID 866, agar plate dilution, read-out: MIC value (minimal inhibitory concentration).
[16] abbreviates: Staphylococcus aureus smith, agar plate dilution.

In the case of `CC[C@H]1OC(=O)[C@H](C)[C@@H](O[C@H]2C[C@@](C)(OC)[C@@H](OC)[C@H](C)O2)[C@H](C)[C@@H](O[C@@H]2O[C@H](C)C[C@H](N(C)C)[C@H]2O)[C@@]2(C)C[C@@H](C)C(OC)(O2)[C@H](C)[C@H]2OC(=O)O[C@@]21C` (single isomer, unassigned) [A], the MIC in test [1] (setting [10]) is 1.6 µg/mL (≈ 2.03 µM); in test [2] (setting [11]), less than 0.05 µg/mL; in test [4] (setting [12]), no more than 0.05 µg/mL; in test [5] (setting [13]), no more than 0.05 µg/mL; in test [6] (setting [14]), 1.6 µg/mL (≈ 2.03 µM); in test [7] (setting [15]), 0.4 µg/mL (≈ 0.508 µM). In addition, the MIC in [8] and in test [9] (setting [16]) was 0.4 µg/mL (≈ 0.508 µM) in each case. Moreover, in test [3] (agar plate dilution), the “MIC value (minimal inhibitory concentration)” value was 3.1 µg/mL (≈ 3.93 µM).
With `CC[C@H]1OC(=O)[C@H](C)[C@@H](O[C@H]2C[C@@](C)(OC)[C@@H](OC)[C@H](C)O2)[C@H](C)[C@@H](O[C@@H]2O[C@H](C)C[C@H](N(C)C)[C@H]2O)[C@@]2(C)C[C@@H](C)C(OC)(O2)[C@H](C)[C@H]2OC(=O)O[C@@]21C` (single isomer, unassigned) [B], the “MIC value (minimal inhibitory concentration)” value in test [1] (Staphylococcus aureus TPR 13, strain resistant to erythromycin, agar plate dilution) was 3.1 µg/mL (≈ 3.93 µM); in [2] (setting [11]), less than 0.05 µg/mL; in test [3] (agar plate dilution), 6.25 µg/mL (≈ 7.93 µM); in test [4] (Staphylococcus aureus FDA 209 P, agar plate dilution) it was 0.1 µg/mL (≈ 0.127 µM); in [5] (Streptococcus faecalis ATCC 8043, agar plate dilution), 0.1 µg/mL (≈ 0.127 µM); in test [6] (Staphylococcus aureus TPR 25, strain resistant to erythromycin, agar plate dilution) it was 3.1 µg/mL (≈ 3.93 µM). Also, the “MIC value (minimal inhibitory concentration)” value in [7] (Staphylococcus epidermidis IID 866, agar plate dilution) was 0.8 µg/mL (≈ 1.02 µM); in test [8] (Bacillus subtilis EM-R, strain resistant to erythromycin), 0.8 µg/mL (≈ 1.02 µM); in [9] (setting [16]) it was 0.8 µg/mL (≈ 1.02 µM).
Consider `CC[C@H]1OC(=O)[C@H](C)[C@@H](O[C@H]2C[C@@](C)(OC)[C@@H](OC)[C@H](C)O2)[C@H](C)[C@@H](O[C@@H]2O[C@H](C)C[C@H](N(C)C)[C@H]2O)[C@@]2(C)C[C@@H](C)C(O)(O2)[C@H](C)[C@H]2OC(=O)O[C@@]21C` (single isomer, unassigned) [C], for which the MIC was 0.8 µg/mL (≈ 1.03 µM) in test [1] (setting [10]); less than 0.05 µg/mL in [2] (setting [11]); 3.1 µg/mL (≈ 4.01 µM) in test [3] (TPR23, Staphylococcus aureus TPR 23, strain resistant to erythromycin, agar plate dilution, read-out: MIC value (minimal inhibitory concentration)); no more than 0.05 µg/mL in test [4] (setting [12]); no more than 0.05 µg/mL in test [5] (setting [13]); 0.8 µg/mL (≈ 1.03 µM) in [6] (setting [14]). Further, the MIC was determined as 0.4 µg/mL (≈ 0.517 µM) in test [7] (setting [15]), 0.4 µg/mL (≈ 0.517 µM) in test [8] and 0.2 µg/mL (≈ 0.258 µM) in [9] (setting [16]).
Regarding `CC[C@H]1OC(=O)[C@H](C)[C@@H](O[C@H]2C[C@@](C)(OC)[C@@H](O)[C@H](C)O2)[C@H](C)[C@@H](O[C@@H]2O[C@H](C)C[C@H](N(C)C)[C@H]2O)[C@](C)(O)C[C@@H](C)C(=O)[C@H](C)[C@@H](O)[C@]1(C)O` [Erythromycin A], the MIC in test [1] (TPR13, read-out: MIC value (minimal inhibitory concentration)) is 25 µg/mL (≈ 34.1 µM); in test [2] (Micrococcus luteus), less than 0.05 µg/mL; in [3] (TPR23, read-out: MIC value (minimal inhibitory concentration)), 100 µg/mL (≈ 136 µM); in test [4] (FDA209, read-out: MIC value (minimal inhibitory concentration)) it was no more than 0.05 µg/mL; in test [5] (ATCC8043, read-out: MIC value (minimal inhibitory concentration)) it was no more than 0.05 µg/mL; in [6] (TPR25, read-out: MIC value (minimal inhibitory concentration)) it was 50 µg/mL (≈ 68.1 µM). Moreover, the MIC was 0.4 µg/mL (≈ 0.545 µM) in test [7] (IID866, read-out: MIC value (minimal inhibitory concentration)); greater than 100 µg/mL in test [8]; 0.2 µg/mL (≈ 0.273 µM) in [9].

The values are drawn from patent US4476298A, “Erythromycin A derivatives” (Taisho Pharmaceutical Co., Ltd., priority 1981, dated 1984).
